# Measured values reported in patent US20240316043A1, “BROMODOMAIN INHIBITORS FOR CANCER THERAPY” (University of Tennessee Research Foundation, priority 2023, published 2024).
# Entries after “also recorded” stand apart in the source; their conditions may differ.
# Experiments:
# [1] = test system: intracranial GBM xenografts (MT330 cells); experiment: Orthotopic GBM model, MT330 cells injected into brains of NSG mice; assay type: in vivo; conditions: for bioluminescent signal in the brain: combination with TMZ (10 mg/Kg), IV-255 or IV-275 (20 mg/Kg) IP 3 times per week, 3-4 weeks after treatment, versus either agent alone, FIG. 10
# Experimental: MT330 cells (10^6) were injected into the brains of NSG female mice. After tumors were identified by BLI (˜10 days post-injection), mice were IP injected with TMZ (60 mg/Kg body weight) or IV-129 (10 mg/Kg) alone or in combination 3 times per week (5 mice per group) for 2 weeks. […] FIG. 5C Kaplan-Meier analysis of the survival data (5 mice/group) of the brain tumor-bearing mice was performed.
# MT330 cells […] were injected into the brains of NSG female mice. After tumors were identified by BLI (˜10 days post-injection), mice were IP injected with TMZ (10 mg/Kg body weight), IV-255 or IV-275 (20 mg/Kg) alone or in combination 3 times per week (5 mice/group).
# Luciferase-expressing MT330 cells were injected into the brains of immunocompromised NSG mice. Once tumors were identified by bioluminescence imaging (BLI) at ˜10 days after tumor cell injection, mice were subjected to intraperitoneal injection of TMZ or YH-IV-129 alone, or in combination. At 20 days after initiation of treatment, live animal imaging was performed on an IVIS Lumina instrument. […] The mean survival of control mice was 27 days after cell injection (FIG. 5C).
# Luciferase-expressing MT330 cells were injected into the brains of immunocompromised NSG mice. Once tumors were identified by bioluminescence imaging (BLI) at ˜10 days after tumor cell injection, mice were subjected to intraperitoneal injection of TMZ or YH-IV-255 or YH-IV-275 alone, or in combination. […] This is compelling preliminary evidence that these two new compounds have potent anticancer activity in intracranial GBM xenografts when combined with standard-of-care TMZ chemotherapy and that these drugs cross the blood-brain barrier.
# BRM bromodomain = biological target: T1, BRM bromodomain (Homo sapiens, UniProt P51531); experiment: Cellular thermal shift assay (CETSA), BRM bromodomain construct in MT330 cells; assay type: binding; design: binding to the BRM BRD: dose or concentration left out as unconfirmed; conditions: for thermostability of the BRM BRD: heating 44.5° C. to 55.6° C. for 5 min, immunoblot; for binding to the BRM BRD: CETSA, FIG. 6B
# T1 construct: expressed in transfected cells; host or cells: MT330 glioblastoma cells
# Experimental: (§1) For the CETSA, MT330 cells expressing the BRM (FIG. 6B), or BRG1 (FIG. 6C) the BRD construct were treated with bromodomain inhibitors […] and immunoblotted as indicated.
# (§2) After heating over a temperature range from 44.5° C. to 55.6° C. for 5 min, MT330 cells were lysed and then immunoblotted for BRG1 or BRM.
# BRG1 bromodomain = biological target: T2, BRG1 bromodomain (Homo sapiens, UniProt P51532); experiment: Cellular thermal shift assay (CETSA), BRG1 bromodomain construct in MT330 cells; assay type: binding; design: binding to the BRG1 BRD: dose or concentration left out as unconfirmed; conditions: for thermostability of the BRG1 BRD: 30 μM, heating 44.5° C. to 55.6° C. for 5 min, immunoblot; for binding to the BRG1 BRD: CETSA, FIG. 6C; for selectivity BRG1 versus BRM bromodomain: conclusion from CETSA and knockout cells
# T2 construct: expressed in transfected cells; host or cells: MT330 glioblastoma cells
# Experimental: After heating over a temperature range from 44.5° C. to 55.6° C. for 5 min, the cells were lysed, placed on ice at 4° C. and then immunoblotted for BRG1 or actin.
# as §1, §2
# T98G GBM cells = experiment: IncuCyte live cell imaging proliferation assay; assay type: cell-based; conditions: TMZ (500 μM) plus bromodomain inhibitors (20 μM), FIG. 2
# Experimental: T98G GBM cells were treated with TMZ (500 μM), the bromodomain inhibitors (20 μM), and cell proliferation was determined by Incucyte live cell assays using cellular confluence method. The data was normalized to the calculated cell confluence at day 0. Control cells were treated with vehicle (DMSO).
# To further characterize the biological activity of selected bromodomain inhibitors, YH-IV-129, YH-IV-181 and YH-IV-191, IncuCyte live cell imaging proliferation assays were performed with the highly TMZ-resistant T98G GBM cell line.
# MT330 GBM cells [2] = experiment: Cell death ELISA in MT330 GBM cells; assay type: cell-based; conditions: for enhancement of TMZ-induced cell death: 10 mM inhibitor in combination with 200 mM of TMZ, 72 hrs, FIG. 1; for enhancement of bleomycin-induced cell death: bleomycin (0.01 μM) and bromodomain inhibitors (10 μM); for enhancement of bleomycin-induced cell death / cell death, inhibitor alone: 72 hr, FIG. 9; for cell death, inhibitor alone: bromodomain inhibitors (10 μM) alone
# Experimental: Control cells were treated with vehicle (DMSO). Cell death was determined at 72 hr after treatment by a cell death ELISA that quantifies histone-complexed DNA fragments. […]
# Parental and BRG1 knockout MT330 cells were treated with bleomycin (0.01 μM) and bromodomain inhibitors […]. After 72 hr, cell death was determined by cell death ELISA.
# The biological activity of bromodomain inhibitors was assessed for the ability to enhance TMZ-induced cell death. In brief, MT330 cells were treated with […] of bromodomain inhibitors alone, or in combination with […] of TMZ for 72 hrs, and GBM cell death was determined by a commercial ELISA.
# LN229 GBM cells = experiment: γH2Ax immunostaining after TMZ; assay type: cell-based; design: dose or concentration left out as unconfirmed; conditions: 24 hrs, FIG. 11
# Experimental: After treatment for 24 hrs, cells were fixed and immunostained for gH2Ax. Analysis of immunostaining was performed on a laser confocal microscope.
# As TMZ is DNA damaging agent, we tested the ability of various bromodomain inhibitors to enhance TMZ-induced DNA damage as evidence by immunostaining of GBM cells with γH2Ax and examination of the staining on a confocal microscope. γH2AX is the phosphorylated version of the histone variant H2Ax and is a highly specific and sensitive marker for monitoring DNA damage initiation and resolution. […] Similar results were obtained with MT330 GBM cells.
# [3] = test system: BRG1 knockout MT330 cells; experiment: Cell death ELISA in BRG1 knockout MT330 cells; assay type: cell-based; conditions: 72 hr
# Experimental: (§3) BRG1 and BRM knockout MT330 cells were treated with TMZ (500 μM) and bromodomain inhibitors (10 μM). After 72 hr, cell death was determined by a cell death ELISA.
# Parental and BRG1 knockout MT330 cells were treated with bleomycin (0.01 μM) and bromodomain inhibitors (10 μM). After 72 hr, cell death was determined by cell death ELISA.
# (§4) To further characterize the specificity of YH-IV-255 for the BRG1 bromodomain, GBM cell lines were generated with either BRG1 or BRM knocked out by CRISPR/Cas9 gene editing.^14 These cells were isolated by puromycin selection and the knockout of the either subunit was validated by immunoblotting.
# BRM knockout MT330 cells = experiment: Cell death ELISA in BRM knockout MT330 cells; assay type: cell-based; conditions: TMZ (500 μM) and bromodomain inhibitors (10 μM), 72 hr, FIG. 7
# Experimental: as §3, §4
# MT330 GBM cells [4] = experiment: Cell death ELISA in MT330 GBM cells; assay type: cell-based; conditions: for TMZ sensitivity (TMZ-induced cell death): TMZ (500 μM) and bromodomain inhibitors (10 μM), 24 hr, FIG. 6A
# MT330 cells = experiment: γH2Ax immunostaining after bleomycin; assay type: cell-based; conditions: bleomycin alone (0.5 and 2 μM), 1 hr, FIG. 8
# Experimental: After 1 hr of bleomycin treatment cell death, cells were fixed and immunostained for γH2Ax. Analysis of immunostaining was performed on at least 1,000 cells on the Lionheart FX imaging system.
# Bleomycin is a chemotherapeutic drug that is used to treat various cancers. […] Thus, the ability of bleomycin to induce DNA damage as evidence by immunostaining of MT330 cells and LN229 with γH2Ax was tested. Quantification of cell staining was determined on the Lionheart FX imaging station.
# [5] = vehicle control band disappearing at 49.8° C., FIG. 3
# T1 sequence (P51531 1378-1506 limits assumed): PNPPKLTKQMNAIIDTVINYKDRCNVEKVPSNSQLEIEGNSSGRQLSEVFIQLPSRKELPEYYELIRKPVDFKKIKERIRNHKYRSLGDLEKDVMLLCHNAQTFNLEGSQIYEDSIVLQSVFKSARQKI
# T2 sequence (P51532 1453-1564 limits assumed): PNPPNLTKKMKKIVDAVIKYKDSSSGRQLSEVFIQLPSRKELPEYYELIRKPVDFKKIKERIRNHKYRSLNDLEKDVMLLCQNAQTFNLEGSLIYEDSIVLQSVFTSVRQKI
compound,measurement,setting,value
"Cn1nnc2c(C(N)=O)ncn2c1=O [TMZ, temozolomide, reference compound]","mean survival, either agent alone","[1]; TMZ (60 mg/Kg) or IV-129 (10 mg/Kg) alone IP, control mice 27 days, FIG. 5C",35 days
"COc1ccc(N2C[C@H]3C[C@@H]2CN3C(=O)Nc2ccccc2)cc1 [YH-IV-181, (1R,4R)-5-(4-methoxyphenyl)-N-phenyl-2,5-diazabicyclo[2.2.1]heptane-2-carboxamide]",thermostability of the BRM BRD,BRM bromodomain; FIG. 3,significantly increased the thermostability
same,temperature at which the BRM BRD protein band is undetectable,BRM bromodomain; [5],54.20 °C
same,thermostability of the BRG1 BRD,BRG1 bromodomain; FIG. 3,significantly increased the thermostability
same,temperature at which the BRG1 BRD protein band is undetectable,BRG1 bromodomain; [5],54.20 °C
same,sensitization to the antiproliferative action of TMZ,T98G GBM cells,potently sensitized T98G GBM cells to the antiproliferative action of TMZ
"COc1ccc(N2C[C@H]3C[C@@H]2CN3C(=O)NC(C)(C)C)cc1 [YH-IV-185, (1R,4R)-N-(tert-butyl)-5-(4-methoxyphenyl)-2,5-diazabicyclo[2.2.1]heptane-2-carboxamide]",thermostability of the BRM BRD,BRM bromodomain; FIG. 3,only moderately increased the thermostability
same,thermostability of the BRG1 BRD,BRG1 bromodomain; FIG. 3,only moderately increased the thermostability
"COc1ccc(N2CCN(C(=O)OC(C)(C)C)CC2)cc1 [YH-IV-189, tert-butyl 4-(4-methoxyphenyl)piperazine-1-carboxylate]",thermostability of the BRM BRD,BRM bromodomain; FIG. 3,only moderately increased the thermostability
same,thermostability of the BRG1 BRD,BRG1 bromodomain; FIG. 3,only moderately increased the thermostability
"COc1ccc(N2C[C@H]3C[C@@H]2CN3C(=O)Nc2ccc(F)cc2)cc1 [YH-IV-211, (1R,4R)-N-(4-fluorophenyl)-5-(4-methoxyphenyl)-2,5-diazabicyclo[2.2.1]heptane-2-carboxamide]",enhancement of TMZ-induced cell death,MT330 GBM cells [2],better efficacy than PFI-3
"COc1ccc(N2C[C@H]3C[C@@H]2CN3C(=O)Oc2ccccc2)cc1 [YH-IV-235, (1R,4R)-phenyl 5-(4-methoxyphenyl)-2,5-diazabicyclo[2.2.1]heptane-2-carboxylate]",enhancement of TMZ-induced cell death,MT330 GBM cells [2],better efficacy than PFI-3
"COc1ccc(N2C[C@H]3C[C@@H]2CN3C(=O)Nc2ccc(F)c(F)c2)cc1 [YH-IV-255, (1R,4R)-N-(3,4-difluorophenyl)-5-(4-methoxyphenyl)-2,5-diazabicyclo[2.2.1]heptane-2-carboxamide]",enhancement of TMZ-induced cell death,MT330 GBM cells [2],better efficacy than PFI-3; also recorded: somewhat more bioactive than YH-IV-129; also recorded: markedly enhanced TMZ sensitivity of GBM cells in vitro as compared to PFI-3
same,enhancement of bleomycin-induced cell death,MT330 GBM cells [2],sensitized GBM cells to bleomycin-induced cell death
same,"cell death, inhibitor alone",MT330 GBM cells [2],"none of the bromodomain inhibitors (YH-IV-129, YH-IV-255 and YH-IV-275) alone had any death inducing activity"
same,bioluminescent signal in the brain,[1],decreased the bioluminescent signal in the brain
same,"γH2Ax staining, inhibitor with TMZ",LN229 GBM cells,marked increase in γH2Ax staining
same,enhancement of TMZ-induced cell death,"[3]; TMZ (500 μM) and bromodomain inhibitors (10 μM), FIG. 7",no such activity in BRG1 knockout GBM cells; also recorded: not BRG1 knockout cells
same,enhancement of bleomycin-induced cell death,"[3]; bleomycin (0.01 μM) and bromodomain inhibitors (10 μM), FIG. 9",ablated in BRG1 knockout MT330 cells
same,binding to the BRM BRD,BRM bromodomain,does not bind
same,enhancement of TMZ-induced cell death,BRM knockout MT330 cells,very similar activity in enhancing the cell death inducing activity in BRM knockout GBM cells; also recorded: sensitized BRM knockout GBM cells
same,binding to the BRG1 BRD,BRG1 bromodomain,bind equivalently to the BRG1 BRD
same,selectivity BRG1 versus BRM bromodomain,BRG1 bromodomain,selective BRG1 bromodomain inhibitor; also recorded: selective inhibitor the BRG-1 bromodomain
same,selectivity BRG1 versus BRM bromodomain,BRG1 bromodomain; listed as IV-255,binds selectively to the BRG1 BRD
same,TMZ sensitivity (TMZ-induced cell death),MT330 GBM cells [4],similarly increase the TMZ sensitivity of GBM cells
same,TMZ sensitivity (TMZ-induced cell death),MT330 GBM cells [4]; listed as IV-255,potent sensitizer to TMZ-induced cell death
"COc1ccc(N2C[C@H]3C[C@@H]2CN3C(=O)Oc2ccc(F)c(F)c2)cc1 [YH-IV-275, (1R,4R)-3,4-difluorophenyl 5-(4-methoxyphenyl)-2,5-diazabicyclo [2.2.1]heptane-2-carboxylate]",enhancement of TMZ-induced cell death,MT330 GBM cells [2],better efficacy than PFI-3; also recorded: somewhat more bioactive than YH-IV-129; also recorded: markedly enhanced TMZ sensitivity of GBM cells in vitro as compared to PFI-3
same,enhancement of bleomycin-induced cell death,MT330 GBM cells [2],sensitized GBM cells to bleomycin-induced cell death
same,"cell death, inhibitor alone",MT330 GBM cells [2],"none of the bromodomain inhibitors (YH-IV-129, YH-IV-255 and YH-IV-275) alone had any death inducing activity"
same,bioluminescent signal in the brain,[1],decreased the bioluminescent signal in the brain
same,"γH2Ax staining, inhibitor with TMZ",LN229 GBM cells,marked increase in γH2Ax staining
same,binding to the BRM BRD,BRM bromodomain,binds well to the BRM BRD
same,enhancement of TMZ-induced cell death,BRM knockout MT330 cells,very similar activity in enhancing the cell death inducing activity in BRM knockout GBM cells
same,binding to the BRG1 BRD,BRG1 bromodomain,bind equivalently to the BRG1 BRD
same,selectivity BRG1 versus BRM bromodomain,BRG1 bromodomain,inhibitor of both BRG1 and BRM domains
same,TMZ sensitivity (TMZ-induced cell death),MT330 GBM cells [4],similarly increase the TMZ sensitivity of GBM cells
bleomycin [reference compound],"cell death, bleomycin alone","MT330 GBM cells [4]; low dose of bleomycin (0.01 µM), 72 hr, FIG. 9",induced low levels of cell death in MT330 cells
same,"γH2Ax staining, bleomycin alone",MT330 cells,dose dependent increase of γH2Ax staining
